Values joined by “and” are separate entries in the source; they are usually repeats but may differ in a detail not shown here. Identical values can stand only once.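 In this assay, cells in 96-well plates receive the compound at five concentrations for 48 hours. Endpoints are linearly interpolated between the surrounding concentrations. At the GI50, growth is halved. TGI: total growth inhibition.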
How the values were obtained:
Assay in all cases: growth of human tumour cells (NCI), 48 h
SNB-19 CNS = system: SNB-19 CNS
HCT-116 colon = system: HCT-116 colon
UACC-257 melanoma = system: UACC-257 melanoma
UO-31 renal = system: UO-31 renal
KM20L2 colon = system: KM20L2 colon
NCI-H226 lung = system: NCI-H226 lung
OVCAR-4 ovarian = system: OVCAR-4 ovarian
A549 NSCLC = system: A549 NSCLC
SN12C renal = system: SN12C renal
OVCAR-3 ovarian = system: OVCAR-3 ovarian
KM12 colon = system: KM12 colon
IGROV1 ovarian = system: IGROV1 ovarian
U251 CNS = system: U251 CNS
NCI-H460 lung = system: NCI-H460 lung
SK-OV-3 ovarian = system: SK-OV-3 ovarian
HT29 colon = system: HT29 colon
CCRF-CEM leukemia = system: CCRF-CEM leukemia
HCC-2998 colon = system: HCC-2998 colon
K-562 leukemia = system: K-562 leukemia
OVCAR-5 ovarian = system: OVCAR-5 ovarian
M14 melanoma = system: M14 melanoma
HCT-15 colon = system: HCT-15 colon
TK-10 renal = system: TK-10 renal
HOP-92 NSCLC = system: HOP-92 NSCLC
UACC-62 melanoma = system: UACC-62 melanoma
SNB-75 CNS = system: SNB-75 CNS
SF-295 CNS = system: SF-295 CNS
A498 renal = system: A498 renal
SF-268 CNS = system: SF-268 CNS
CAKI-1 renal = system: CAKI-1 renal
ACHN renal = system: ACHN renal
MOLT-4 leukemia = system: MOLT-4 leukemia
SF-539 CNS = system: SF-539 CNS
786-0 renal = system: 786-0 renal
HL-60(TB) leukemia = system: HL-60(TB) leukemia
EKVX NSCLC = system: EKVX NSCLC
MALME-3M melanoma = system: MALME-3M melanoma
SW-620 colon = system: SW-620 colon
OVCAR-8 ovarian = system: OVCAR-8 ovarian
SK-MEL-28 melanoma = system: SK-MEL-28 melanoma
HOP-62 NSCLC = system: HOP-62 NSCLC
SK-MEL-2 melanoma = system: SK-MEL-2 melanoma
RXF 393 renal = system: RXF 393 renal
COLO 205 colon = system: COLO 205 colon
SK-MEL-5 melanoma = system: SK-MEL-5 melanoma
RPMI-8226 leukemia = system: RPMI-8226 leukemia
MCF7 breast = system: MCF7 breast
NCI/ADR-RES ovarian = system: NCI/ADR-RES ovarian
NCI-H522 lung = system: NCI-H522 lung
SR leukemia = system: SR leukemia
PC-3 prostate = system: PC-3 prostate
NCI-H23 lung = system: NCI-H23 lung
MDA-MB-231 breast = system: MDA-MB-231 breast
T-47D breast = system: T-47D breast
LOX IMVI melanoma = system: LOX IMVI melanoma
MDA-N = system: MDA-N
HS 578T breast = system: HS 578T breast
DU-145 prostate = system: DU-145 prostate
MDA-MB-435 = system: MDA-MB-435
BT-549 breast = system: BT-549 breast

O=C(N/N=C/c1cc(Br)cc(Br)c1[O-])c1ccccc1O.O=C(N/N=C/c1cc(Br)cc(Br)c1[O-])c1ccccc1O.[Mn+2]
TGI (SNB-19 CNS): 36 µM | TGI (HCT-116 colon): 7.36 µM | TGI (UACC-257 melanoma): 21 µM | TGI (UO-31 renal): 24.2 µM | TGI (KM20L2 colon): 21.3 µM | TGI (NCI-H226 lung): 11 µM | TGI (OVCAR-4 ovarian): 17.5 µM | TGI (A549 NSCLC): 25.5 µM | GI50 (SN12C renal): 1.56 µM | TGI (SN12C renal): 16.5 µM | TGI (OVCAR-3 ovarian): 1.66 µM | TGI (KM12 colon): 22.9 µM | TGI (IGROV1 ovarian): 22.7 µM | TGI (U251 CNS): 14.8 µM | TGI (NCI-H460 lung): 13.9 µM | TGI (SK-OV-3 ovarian): 33.8 µM | TGI (HT29 colon): 22.3 µM | GI50 (CCRF-CEM leukemia): 0.263 µM | TGI (CCRF-CEM leukemia): 6.42 µM | TGI (HCC-2998 colon): 25.9 µM | GI50 (K-562 leukemia): 1.66 µM | TGI (K-562 leukemia): 12.1 µM | TGI (OVCAR-5 ovarian): 16.4 µM | TGI (M14 melanoma): 3.48 µM | TGI (HCT-15 colon): 19.9 µM | TGI (TK-10 renal): 31 µM | TGI (HOP-92 NSCLC): 14.9 µM | TGI (UACC-62 melanoma): 17.2 µM | TGI (SNB-75 CNS): 15.5 µM | TGI (SF-295 CNS): 13.7 µM | GI50 (A498 renal): 12.8 µM | TGI (A498 renal): 50.1 µM | TGI (SF-268 CNS): 10.6 µM | TGI (CAKI-1 renal): 11.9 µM | TGI (ACHN renal): 15.1 µM | TGI (MOLT-4 leukemia): 7.94 µM | TGI (SF-539 CNS): 5.56 µM | GI50 (786-0 renal): 0.887 µM | TGI (786-0 renal): 15.9 µM | TGI (HL-60(TB) leukemia): 2.81 µM | TGI (EKVX NSCLC): 34.6 µM | TGI (MALME-3M melanoma): 16.6 µM | TGI (SW-620 colon): 24.1 µM | TGI (OVCAR-8 ovarian): 14.3 µM | TGI (SK-MEL-28 melanoma): 13.8 µM | TGI (HOP-62 NSCLC): 25.9 µM | TGI (SK-MEL-2 melanoma): 22.3 µM | TGI (RXF 393 renal): 28.4 µM | TGI (COLO 205 colon): 13.2 µM | TGI (SK-MEL-5 melanoma): 19.2 µM | GI50 (RPMI-8226 leukemia): 1.03 µM | TGI (RPMI-8226 leukemia): 14.8 µM

CC(C)(N=NC(C)(C)C1=NCCN1)C1=NCCN1
TGI (SNB-19 CNS): > 100 µM | TGI (MCF7 breast): > 100 µM | TGI (HCT-116 colon): > 100 µM | TGI (UACC-257 melanoma): > 100 µM | TGI (NCI/ADR-RES ovarian): > 100 µM | GI50 (NCI-H522 lung): 9.38 µM and 21.4 µM | TGI (NCI-H522 lung): > 100 µM and 60 µM | TGI (UO-31 renal): > 100 µM | TGI (NCI-H226 lung): > 100 µM | GI50 (SR leukemia): > 100 µM | TGI (SR leukemia): > 100 µM | TGI (OVCAR-4 ovarian): > 100 µM | TGI (A549 NSCLC): > 100 µM | TGI (SN12C renal): > 100 µM | TGI (OVCAR-3 ovarian): > 100 µM | TGI (KM12 colon): > 100 µM | TGI (IGROV1 ovarian): > 100 µM | TGI (U251 CNS): > 100 µM | TGI (PC-3 prostate): > 100 µM | TGI (NCI-H460 lung): > 100 µM | TGI (SK-OV-3 ovarian): > 100 µM | TGI (HT29 colon): > 100 µM | TGI (CCRF-CEM leukemia): > 100 µM | TGI (HCC-2998 colon): > 100 µM | TGI (K-562 leukemia): > 100 µM | TGI (OVCAR-5 ovarian): > 100 µM | TGI (M14 melanoma): > 100 µM | TGI (HCT-15 colon): > 100 µM | TGI (TK-10 renal): > 100 µM | TGI (NCI-H23 lung): > 100 µM | TGI (HOP-92 NSCLC): > 100 µM | TGI (UACC-62 melanoma): > 100 µM | TGI (MDA-MB-231 breast): > 100 µM | TGI (T-47D breast): > 100 µM | TGI (SNB-75 CNS): > 100 µM | TGI (SF-295 CNS): > 100 µM | TGI (A498 renal): > 100 µM | TGI (SF-268 CNS): > 100 µM | TGI (CAKI-1 renal): > 100 µM | TGI (ACHN renal): > 100 µM | TGI (MOLT-4 leukemia): > 100 µM | TGI (SF-539 CNS): > 100 µM | TGI (786-0 renal): > 100 µM | TGI (LOX IMVI melanoma): > 100 µM | TGI (MDA-N): > 100 µM | GI50 (HL-60(TB) leukemia): > 100 µM | TGI (HL-60(TB) leukemia): > 100 µM | TGI (EKVX NSCLC): > 100 µM | TGI (MALME-3M melanoma): > 100 µM | TGI (SW-620 colon): > 100 µM | TGI (OVCAR-8 ovarian): > 100 µM | TGI (SK-MEL-28 melanoma): > 100 µM | TGI (HS 578T breast): > 100 µM | TGI (HOP-62 NSCLC): > 100 µM | TGI (SK-MEL-2 melanoma): > 100 µM | TGI (DU-145 prostate): > 100 µM | TGI (RXF 393 renal): > 100 µM | TGI (COLO 205 colon): > 100 µM | TGI (MDA-MB-435): > 100 µM | TGI (BT-549 breast): > 100 µM | TGI (SK-MEL-5 melanoma): > 100 µM | GI50 (RPMI-8226 leukemia): > 100 µM | TGI (RPMI-8226 leukemia): > 100 µM
